In patent US12060349B2, “Glucosylceramide synthase inhibitors” (Genzyme Corporation, priority 2012, dated 2024) one finds IC50 data, which are given here for 17 compounds.

The subject of assay [1] is GM3 expression on the cell surface, C32 human melanoma cells. Description: cell based phenotypic assay, cell surface GM3 by antibody mediated immunofluorescence, C32 (GM3 C32 IC50). The settings on record: 50% inhibition of GM3 expression on the cell surface. In short, it runs like this:
(§1)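 Two melanoma lines, mouse B16 and human C32, were treated and surface GM3 quantified by antibody immunofluorescence for IC50. A parallel viability readout gives the concentration killing 50% of cells, with values over 10 indicating no cell death.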

Assay [2] deals with GM3 expression on the cell surface, B16 mouse melanoma cells. Briefly: cell based phenotypic assay, cell surface GM3 by antibody mediated immunofluorescence, B16 (GM3 B16 IC50). The settings on record: 50% inhibition of GM3 expression on the cell surface. In short, it runs like this: as §1
The target in assay [3] is T1, glucosylceramide synthase (Homo sapiens, UniProt Q16739).
T1 construct: Microsomes were isolated from A375 human melanoma cells; endogenous in cells; host or cells: A375 human melanoma cells (microsomal fraction, 100,000 g pellet)
T1 sequence (Q16739 1-394): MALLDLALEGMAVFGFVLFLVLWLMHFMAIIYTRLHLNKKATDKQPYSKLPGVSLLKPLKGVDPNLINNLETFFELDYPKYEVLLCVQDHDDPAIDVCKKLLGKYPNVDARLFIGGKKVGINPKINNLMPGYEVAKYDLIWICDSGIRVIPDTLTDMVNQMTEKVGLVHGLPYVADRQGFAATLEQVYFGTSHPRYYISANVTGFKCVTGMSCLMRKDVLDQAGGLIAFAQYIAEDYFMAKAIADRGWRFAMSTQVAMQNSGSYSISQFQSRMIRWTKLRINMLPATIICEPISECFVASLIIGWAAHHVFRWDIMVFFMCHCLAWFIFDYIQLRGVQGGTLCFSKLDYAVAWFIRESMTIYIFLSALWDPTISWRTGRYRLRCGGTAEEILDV
Description: microsomal assay measuring conversion of ceramide to glucosylceramide by HPLC (GCS IC50). The format is biochemical. To be noted: concentration causing 50% inhibition of glucosylceramide synthase activity. In short, it runs like this: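 Microsomal preparation assayed for glucosylceramide synthase by direct HPLC measurement of ceramide conversion to glucosylceramide. GCS IC50 is the compound concentration giving 50% inhibition of enzyme activity.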

Another assay deals with C32 human melanoma cells. Description: cell viability in the C32 cell-based assay (Viability, C32 IC50). To be noted: concentration causing 50% cell death, values greater than 10 represent a lack of cell death. In short, it runs like this:
(§2)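 Both lines undergo the phenotypic GM3 assay, and viability is recorded from that same cell-based run.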

The test system of a further assay is B16 mouse melanoma cells. Briefly: cell viability in the B16 cell-based assay (Viability, B16 IC50). The settings on record: Mus musculus. In short, it runs like this:
as §2

The mark [4] stands for this setting: Homo sapiens, C32 human melanoma cells, read-out: GM3 C32 IC50.
Where [5] appears, read: Mus musculus, B16 mouse melanoma cells, read-out: GM3 B16 IC50.
Where [6] appears, read: Homo sapiens, C32, C32 cells, read-out: Viability, C32 IC50.
Setting [7] is: B16, B16 cells, concentration causing 50% cell death, values greater than 10 represent a lack of cell death, read-out: Viability, B16 IC50.
The mark [8] stands for this setting: Homo sapiens, read-out: GM3 C32 IC50, C32 human melanoma cells.
The mark [9] stands for this setting: Mus musculus, read-out: GM3 B16 IC50, B16 mouse melanoma cells.
Where [10] appears, read: Homo sapiens, C32, read-out: Viability, C32 IC50, C32 cells.
[11] abbreviates: B16, read-out: Viability, B16 IC50.

Structures are written as SMILES. Like-named read-outs stand apart in the source and are kept apart here. Bounds are passed on as bounds.

What is called IC50 is the concentration needed to halve the response being measured. Regarding `COCCOCc1ccc(-c2ccnc(N3CCC(C)(C(=O)NC4(C)CCN5CCC4CC5)CC3)n2)cc1` (stereo not shown) [Example 97, 1-(4-(4-((2-Methoxyethoxy)methyl)phenyl)pyrimidin-2-yl)-4-methyl-N-(4-methyl-1-azabicyclo[3.2.2]nonan-4-yl)piperidine-4-carboxamide], the IC50 was 1.36 nM in assay [1] (setting [4]); 285 nM in assay [2] (setting [5]); 13.4 nM in assay [3]; 1000 nM with C32 human melanoma cells (setting [6]); ≥ 10000 nM with B16 mouse melanoma cells (setting [7]).
With `COCCCOc1cnc(-c2cccc(C(C)(C)NC(=O)N3CCN4CCC3CC4)c2)cn1` [Example 317, N-(2-(3-(5-(3-Methoxypropoxy)pyrazin-2-yl)phenyl)propan-2-yl)-1,4-diazabicyclo[3.2.2]nonane-4-carboxamide], the IC50 in assay [1] (setting [4]) was 29.1 nM; in assay [2] (setting [5]) it was 656 nM; in assay [3], 295 nM; in the assay on C32 human melanoma cells (setting [6]), 1000 nM; in the assay on B16 mouse melanoma cells (setting [7]), ≥ 10000 nM.
Take `CC(C)(NC(=O)OC1CCN2CCC1CC2)c1ccc(Oc2ccc(C(=O)N3CCC(F)(F)CC3)cc2)cc1` (stereo not shown) [Example 301, 1-Azabicyclo[3.2.2]nonan-4-yl 2-(4-(4-(4,4-difluoropiperidine-1-carbonyl)phenoxy)phenyl)propan-2-ylcarbamate]: the IC50 was 3.39 nM in assay [1] (setting [4]); 49.4 nM in assay [2] (setting [5]); 17.2 nM in assay [3]; 1000 nM with C32 human melanoma cells (setting [6]); ≥ 10000 nM with B16 mouse melanoma cells (setting [7]).
For the compound `CC(C)(NC(=O)N1CCN2CCC1CC2)c1ccc(-c2ccc(OCCC3COC3)cc2)cc1` [Example 196, N-(2-(4′-(2-(Oxetan-3-yl)ethoxy)-[1,1′-biphenyl]-4-yl)propan-2-yl)-1,4-diazabicyclo[3.2.2]nonane-4-carboxamide], the IC50 in assay [1] (setting [4]) is 28.3 nM; in assay [2] (setting [5]), 274 nM; in assay [3], 538 nM; with C32 human melanoma cells (setting [6]) it was 1000 nM; in the assay on B16 mouse melanoma cells (setting [7]) it was ≥ 10000 nM.
Turning to `C[C@@H]1CN(C(=O)NC2(C)CCN3CCC2CC3)CCN1c1ncc(Oc2ccc(F)cc2)cn1` (stereo partly drawn) [Example 152, (3R)-4-(5-(4-Fluorophenoxy)pyrimidin-2-yl)-3-methyl-N-(4-methyl-1-azabicyclo[3.2.2]nonan-4-yl)piperazine-1-carboxamide], the IC50 in assay [1] (setting [4]) is 0.439 nM; in assay [2] (setting [5]), 76.3 nM; in assay [3] it was 2.88 nM; in the assay on C32 human melanoma cells (setting [6]), 316 nM; with B16 mouse melanoma cells (setting [7]) it was 6770 nM.
For `CN(C)C(=O)c1ccc(-c2ccc(C(C)(C)NC(=O)OC3CN4CCC3CC4)cc2)cc1` (stereo not shown) [Example 257, Quinuclidin-3-yl 2-(4′-(dimethylcarbamoyl)biphenyl-4-yl)propan-2-ylcarbamate], the concentration for half-maximal inhibition (IC50) in assay [1] (setting [8]) was 77.2 nM; in assay [2] (setting [9]) it was 786 nM; in assay [3], 365 nM; in the assay on C32 human melanoma cells (setting [10]), ≥ 10000 nM; with B16 mouse melanoma cells (setting [11]), ≥ 10000 nM.
As to `CCC1(NC(=O)N2CCN(c3cccc(-c4ccc(F)cc4)c3)CC2)CN2CCC1CC2` (stereo not shown) [Example 23, N-(3-Ethylquinuclidin-3-yl)-4-(4′-fluoro-[1,1′-biphenyl]-3-yl)piperazine-1-carboxamide], the IC50 worked out at 90.9 nM in assay [1] (setting [4]); 351 nM in assay [2] (setting [5]); 1580 nM in assay [3]; 3160 nM with C32 human melanoma cells (setting [6]); 7070 nM with B16 mouse melanoma cells (setting [7]).
On to `COCCCOc1ccc(-c2ccnc(N3CCC(OC)(C(=O)NC4(C)CCN5CCC4CC5)CC3)n2)cc1` (stereo not shown) [Example 101, 4-Methoxy-1-(4-(4-(3-methoxypropoxy)phenyl)pyrimidin-2-yl)-N-(4-methyl-1-azabicyclo[3.2.2]nonan-4-yl)piperidine-4-carboxamide], for which the IC50 in assay [1] (setting [4]) came out at 0.436 nM; in assay [2] (setting [5]) it was 78.5 nM; in assay [3], 3.38 nM; with C32 human melanoma cells (setting [6]), 1000 nM; in the assay with B16 mouse melanoma cells (setting [7]) it was 2030 nM.
In the case of `COCCOc1ccc(-c2ccc(C3(NC(=O)NC4(C)CCN5CCC4CC5)CC3)cc2)cc1` (stereo not shown) [Example 165, 1-(1-(4′-(2-Methoxyethoxy)-[1,1′-biphenyl]-4-yl)cyclopropyl)-3-(4-methyl-1-azabicyclo[3.2.2]nonan-4-yl)urea], the IC50 in assay [1] (setting [4]) stood at 0.24 nM; in assay [2] (setting [5]) it was 0.516 nM; in assay [3] it was 4.15 nM; with C32 human melanoma cells (setting [6]) it was 31.6 nM; with B16 mouse melanoma cells (setting [7]) it was 316 nM.
Consider `COCCOCc1ccc(-c2ccc(C3(NC(=O)NC4(C)CCN5CCC4CC5)CC3)cc2)cc1` (stereo not shown) [Example 207, 1-(1-(4′-((2-Methoxyethoxy)methyl)-[1,1′-biphenyl]-4-yl)cyclopropyl)-3-(4-methyl-1-azabicyclo[3.2.2]nonan-4-yl)urea], for which the IC50 in assay [1] (setting [4]) is 1.39 nM; in assay [2] (setting [5]), 31.3 nM; in assay [3], 12.3 nM; with C32 human melanoma cells (setting [6]) it was 1780 nM; with B16 mouse melanoma cells (setting [7]), ≥ 10000 nM.
For `CC1(NC(=O)C2CCN(c3nccc(-c4ccc(F)c(F)c4)n3)CC2)CCN2CCC1CC2` (stereo not shown) [Example 64, 1-(4-(3,4-Difluorophenyl)pyrimidin-2-yl)-N-(4-methyl-1-azabicyclo[3.2.2]nonan-4-yl)piperidine-4-carboxamide], the 50% inhibitory concentration (IC50) came out at 0.062 nM in assay [1] (setting [4]); 32.9 nM in assay [2] (setting [5]); 1.7 nM in assay [3]; 5530 nM in the assay with C32 human melanoma cells (setting [6]); 3420 nM in the assay with B16 mouse melanoma cells (setting [7]).
Regarding `COCCOc1ccc(-c2ccc(C(C)(C)NC(=O)OC3CCN4CCC3CC4)nc2)cc1` (stereo not shown) [Example 347, 1-Azabicyclo[3.2.2]nonan-4-yl 2-(5-(4-(2-methoxyethoxy)phenyl)pyridin-2-yl)propan-2-ylcarbamate], the IC50 was 5.82 nM in assay [1] (setting [4]); 150 nM in assay [2] (setting [5]); 36.8 nM in assay [3]; 1410 nM in the assay on C32 human melanoma cells (setting [6]); ≥ 10000 nM with B16 mouse melanoma cells (setting [7]).
Consider `COCCOc1ccc(Oc2nc(N3CCC(F)(C(=O)NC4(C)CN5CCC4CC5)CC3)ncc2F)cc1` (stereo not shown) [Example 118, 4-Fluoro-1-(5-fluoro-4-(4-(2-methoxyethoxy)phenoxy)pyrimidin-2-yl)-N-(3-methylquinuclidin-3-yl)piperidine-4-carboxamide], for which the IC50 came out at 1.16 nM in assay [1] (setting [4]); 63.4 nM in assay [2] (setting [5]); 2.54 nM in assay [3]; 1000 nM with C32 human melanoma cells (setting [6]); 4640 nM with B16 mouse melanoma cells (setting [7]).
For the compound `CCC1(NC(=O)NC2(c3ccc(-c4ccc(COCc5cccnc5)cc4)cc3)CC2)CN2CCC1CC2` (stereo not shown) [Example 217, 1-(3-Ethylquinuclidin-3-yl)-3-(1-(4′-((pyridin-3-ylmethoxy)methyl)-[1,1′-biphenyl]-4-yl)cyclopropyl)urea], the IC50 in assay [1] (setting [4]) was 4.02 nM; in assay [2] (setting [5]) it was 168 nM; in assay [3], 13.3 nM; in the assay with C32 human melanoma cells (setting [6]) it was ≥ 10000 nM; with B16 mouse melanoma cells (setting [7]) it was ≥ 10000 nM.
Regarding `COCCOc1ccc(-c2ccc(C(C)(C)NC(=O)OC3CN4CCC3CC4)cc2)nc1` (stereo not shown) [Example 308, Quinuclidin-3-yl 2-(4-(5-(2-methoxyethoxy)pyridin-2-yl)phenyl)propan-2-ylcarbamate], the IC50 amounted to 35.8 nM in assay [1] (setting [8]); 314 nM in assay [2] (setting [9]); 254 nM in assay [3]; 1000 nM in the assay on C32 human melanoma cells (setting [10]); 7770 nM in the assay on B16 mouse melanoma cells (setting [11]).
In the case of `CCC1(NC(=O)NC2(c3ccc(-c4ccc(COCCOC)cc4)cc3)CC2)CN2CCC1CC2` (single isomer, unassigned) [Example 208, 1-(3-Ethylquinuclidin-3-yl)-3-(1-(4′-((2-methoxyethoxy)methyl)-[1,1′-biphenyl]-4-yl)cyclopropyl)urea], the IC50 in assay [1] (C32 human melanoma cells, read-out: GM3 C32 IC50) was 73.9 nM; in assay [2] (B16 mouse melanoma cells, read-out: GM3 B16 IC50) it was 988 nM; in assay [3], 2710 nM; with C32 human melanoma cells (C32 cells, read-out: Viability, C32 IC50), ≥ 10000 nM; in the assay with B16 mouse melanoma cells (setting [7]), ≥ 10000 nM.
Consider `O=C(OC1CCN2CCC1CC2)N1CCN(c2cccc(-c3ccc(F)cc3)c2)CC1` (stereo not shown) [Example 24, 1-Azabicyclo[3.2.2]nonan-4-yl 4-(4′-fluoro-[1,1′-biphenyl]-3-yl)piperazine-1-carboxylate], for which the IC50 in assay [1] (setting [4]) worked out at 1080 nM; in assay [2] (setting [5]), 1680 nM; in assay [3], 9520 nM; with C32 human melanoma cells (setting [6]) it was 3980 nM; in the assay with B16 mouse melanoma cells (setting [7]) it was 3610 nM.
